Laboratory results from publication PMC5492227 (European journal of medicinal chemistry, 2017).

Target: T1, EPAC1 (Homo sapiens, UniProt O95398)
T1 sequence (O95398 1-923): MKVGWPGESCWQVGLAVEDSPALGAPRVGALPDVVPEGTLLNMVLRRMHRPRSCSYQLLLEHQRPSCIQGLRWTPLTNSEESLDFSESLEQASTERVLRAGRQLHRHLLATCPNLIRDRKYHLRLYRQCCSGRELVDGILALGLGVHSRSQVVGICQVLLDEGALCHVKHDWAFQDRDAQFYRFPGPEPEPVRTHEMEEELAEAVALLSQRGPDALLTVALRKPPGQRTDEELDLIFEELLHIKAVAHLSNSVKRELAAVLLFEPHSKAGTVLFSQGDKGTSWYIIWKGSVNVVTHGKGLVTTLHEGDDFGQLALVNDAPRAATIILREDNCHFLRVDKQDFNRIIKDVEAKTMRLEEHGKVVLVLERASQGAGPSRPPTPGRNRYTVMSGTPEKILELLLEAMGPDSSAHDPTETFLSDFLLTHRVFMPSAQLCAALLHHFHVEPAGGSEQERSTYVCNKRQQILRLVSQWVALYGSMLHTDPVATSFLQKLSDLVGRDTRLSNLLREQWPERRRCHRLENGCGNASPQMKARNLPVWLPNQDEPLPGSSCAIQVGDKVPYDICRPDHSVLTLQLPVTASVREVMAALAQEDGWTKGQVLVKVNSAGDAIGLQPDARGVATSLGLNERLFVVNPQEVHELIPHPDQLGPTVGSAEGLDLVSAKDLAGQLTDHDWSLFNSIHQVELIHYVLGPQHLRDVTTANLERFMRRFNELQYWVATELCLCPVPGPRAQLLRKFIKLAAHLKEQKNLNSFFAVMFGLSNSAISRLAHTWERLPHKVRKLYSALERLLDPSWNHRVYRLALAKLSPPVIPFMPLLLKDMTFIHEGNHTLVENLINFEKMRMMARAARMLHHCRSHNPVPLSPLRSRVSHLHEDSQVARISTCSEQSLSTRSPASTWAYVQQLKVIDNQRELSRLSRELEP
Assay: biochemical
Type: biochemical

Structure (SMILES) | fold increase in potency compared to that of 1 (EPAC1) | IC50 (Rap1b-bGDP EPAC1 IC50, purified recombinant full-length EPAC1, 20 μM cAMP, mean ± SD of at least three independent experiments) [µM]
N#C/C(=N\Nc1ccc(Cl)c(C(F)(F)F)c1)C(=O)c1cc(-c2ccccc2)on1 [Compound 14, N-(3-Trifluromethyl-4-chlorophenyl)-2-oxo-2-(5-phenylisoxazol-3-yl)acetohydrazonoyl cyanide] | about 5 fold | –
N#C/C(=N\Nc1cccc(Cl)c1)C(=O)c1cc(-c2ccco2)on1 [Compound 25, N-(3-Chlorophenyl)-2-(5-(furan-2-yl)isoxazol-3-yl)-2-oxoacetohydrazonoyl cyanide] | – | 3.6
